Laboratory results as given in PubChem BioAssay (NCI).
Several values for one entry are separate records, joined by “and”; a condition that tells them apart may be missing. Equal values may be shown once.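 Assay format: 96-well plates, 48-hour exposure. GI50 marks 50% less growth. TGI denotes the concentration required for complete inhibition of growth.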

Columns and labels:
Test in all cases: inhibition of tumour cell growth, NCI panel, 48 h
NCI-H522 lung = test system: NCI-H522 lung
SF-539 CNS = test system: SF-539 CNS
SK-MEL-28 melanoma = test system: SK-MEL-28 melanoma
SK-OV-3 ovarian = test system: SK-OV-3 ovarian
HL-60(TB) leukemia = test system: HL-60(TB) leukemia
NCI-H226 lung = test system: NCI-H226 lung
SW-620 colon = test system: SW-620 colon
SNB-75 CNS = test system: SNB-75 CNS
SK-MEL-5 melanoma = test system: SK-MEL-5 melanoma
OVCAR-3 ovarian = test system: OVCAR-3 ovarian

SMILES	GI50 (NCI-H522 lung) [µM]	TGI (NCI-H522 lung) [µM]	GI50 (SF-539 CNS)	TGI (SF-539 CNS) [µM]	GI50 (SK-MEL-28 melanoma) [µM]	TGI (SK-MEL-28 melanoma)	GI50 (SK-OV-3 ovarian) [µM]	TGI (SK-OV-3 ovarian) [µM]	GI50 (HL-60(TB) leukemia) [µM]	TGI (HL-60(TB) leukemia) [µM]	GI50 (NCI-H226 lung) [µM]	TGI (NCI-H226 lung) [µM]	GI50 (SW-620 colon) [µM]	TGI (SW-620 colon) [µM]	GI50 (SNB-75 CNS)	TGI (SNB-75 CNS)	GI50 (SK-MEL-5 melanoma) [µM]	TGI (SK-MEL-5 melanoma) [µM]	GI50 (OVCAR-3 ovarian) [µM]	TGI (OVCAR-3 ovarian) [µM]
COc1cc(-c2cnn(C)c2)ccc1Nc1ncc2ccnc(N[C@@H](C)C(C)(C)C)c2n1	> 100	> 100	> 57.3 µM	> 100	> 100	> 100 µM	> 68.1	> 100	> 100	> 100	> 83.3	> 100	1.46	> 100	3.26 µM	> 100 µM	> 79	> 100	> 89.8	> 100
CCN(CC)CCNc1c(OC)cc(C)c2sc3ccccc3c(=O)c12		20		23		5.1 µM		31.3		18.9		12.8		17.9		28.7 µM		3.4		26.2
CC(=O)OCC1OC(n2c(-c3ccccc3)cc(-c3ccco3)c(C#N)c2=O)C(OC(C)=O)C(OC(C)=O)C1OC(C)=O (stereo unspecified)		> 100	16.3 µM and 84.6 µM	> 100		67 µM and > 100 µM		> 100		> 100		> 100		> 100	13.3 µM and > 100 µM	40.9 µM and > 100 µM		> 100		> 100
COc1cc2c(cc1C)NC(=O)/C2=C\c1cc(OC)c(OC)c(OC)c1	> 100	> 100	48.4 µM	> 100	> 100	> 100 µM	83.3	> 100	13.8	45.7	> 100	> 100	> 100	> 100	12.9 µM	31.4 µM	> 100	> 100	> 100	> 100
CCCCCCNC(=O)C1=C(C)NC(C)=C(C(=O)NCCCCCC)C1		> 100		> 100		> 100 µM		> 100		> 100		> 100		> 100		> 100 µM		> 100		> 100
Oc1ccc(Br)cc1Sc1cc(Br)ccc1O	2.69	8.46	4.66 µM	18.7	4.78	16.6 µM	14.9	29.7	4.98	25	18.1	41.9	9.29	25.3	4.29 µM	19.7 µM	3.16	11.6	4.98	18
COc1cc2c(cc1OCc1ccccc1)N=C[C@@H]1C/C(=C/C(=O)NCCCN3C(=O)c4cccc5cccc(c45)C3=O)CN1C2=O	0.228		0.332 µM	1.47	1.96	24.8 µM	8.35	33.5	0.171	> 23.3	2.82	> 100	0.284	15.5	0.877 µM	3.66 µM	1.04	3.33	0.273	3.72
COC1=CC23C=CC1[C@@H](c1ccccc1)C2=C(C)C(=O)N3C(=O)NC1CCCCC1 (stereo partly specified)		41.3		39.2		42.2 µM		93.5		> 100		46.6		47.8		> 100 µM		29.2		59.8
